In US4552864A, “Gonadoliberin derivatives process for the preparation and pharmaceutical compositions thereof” (Reanal Finomvegyszergyar, priority 1982, dated 1985):
Like-named read-outs stand apart in the source and are kept apart here.

System: adenohypophysis of female Sprague-Dawley rats (cell cultures), LH-hormone released from the cells
Conditions: for ED50 (LH release): rat pituitary cell culture, 4 hours incubation with 10^-7 to 10^-12 molar peptide; for relative activity (GnRH = 1.00): relative LH-releasing activity versus GnRH, from ED50 values
Protocol: The LH-releasing activity of the new peptides according to the invention was tested by the following method, in which for comparison the known gonadoliberin was employed under the same conditions.
The adenohypophysis of female Sprague-Dawley rats weighing 150-200 g each was eliminated and pretrypsinized. Approximately 40-50 pituitaries were placed into separate flasks and allowed to stand in 25 ml of a 0.25% trypsin solution (Sigma, type 111) at 0° to 4° C. for 16 hours. The pituitaries were then stirred under a 5% CO2 atmosphere at 37° C. for 20-25 minutes while they were decomposed to their cells. To the cell suspension soya-bean trypsin inhibitor was added whereupon it was suspended and centrifuged in a Medium 199 solution (with Earle's salts, Flow Laboratories, UK) three times (800 x g, 10 minutes). The cell suspension was padded through a sterile metal filter and the number of cells in one ml was counted. After counting, 3 ml of the cell suspension was dispensed into culture flasks each containing 1.8×10^6 cells. The cells were cultured for 3 days at 37° C. under a 5% CO2 atmosphere. On the 3rd day the medium was replaced by a fresh one and incubation was continued for one more day. On the 4th day the medium was changed again and a medium containing a 10^-7 to 10^-12 molar solution of the peptides to be tested was added to the cell cultures. The cells were incubated with the peptide solutions for 4 hours, the culture solutions were eliminated and the amount of the LH-hormone released from the cells was determined by radioimunoassay.

| Substance | ED50 (LH release) (unit as printed for GnRH) [nM] | relative activity (GnRH = 1.00) | ED50 (LH release) [nM] |
| --- | --- | --- | --- |
| Gonadoliberin [GnRH, reference compound] | 0.343 | 1.00 |  |
| Glp-His-Trp-Ser-Tyr-D-Thx-Leu-Arg-Pro-Gly-NH2 [D-Thx^6 -GnRH] |  | 11.9 | 0.02892 |
| Glp-His-Trp-Ser-Tyr-D-Cpa-Leu-Arg-Pro-Gly-NH2 [D-Cpa^6 -GnRH] |  | 16.6 | 0.02063 |
